Measured values taken from patent publication US9682938B2, “Pyrazolone derivatives as nitroxyl donors” (Cardioxyl Pharmaceuticals, Inc., priority 2014, dated 2017).
Blank lines part the entries; values can stand above or below the molecule they belong to.

Experiments:
Format in all cases: in vitro ADME
[1] = In vitro plasma stability, dog plasma; conditions: male, pH 7.4, 5 μM, 37° C., sampling 0-360 minutes, read-out: T1/2 Dog
Procedure: (§1) Certain compounds from Table 1 were tested for their stability in plasma. The assay system comprised plasma from rat, dog or human (at least 3 donors, male, pooled) at pH 7.4, and (ii) an anticoagulant (sodium heparin or sodium citrate). Each test compound (5 μM) was incubated in plasma at 37° C. on a THERMOMIXER® with shaking. Three samples (n=3) were taken at each of seven sampling time points: 0, 10, 30, 60, 90, 180 and 360 minutes. The samples were immediately combined with 3 volumes (i.e., 3 times the volume of plasma) of acetonitrile containing 1% formic acid and an internal standard to terminate the reaction. AB SCIEX API 3000 LC-MS/MS analysis of the test compounds was performed without a standard curve. Plasma half-lives (T1/2) of the test compounds were determined from graphs of the percent remaining values using the peak area response ratio.

[2] = In vitro plasma stability, rat plasma; conditions: male, pH 7.4, 5 μM, 37° C., sampling 0-360 minutes, read-out: T1/2 Rat
Procedure: as §1

[3] = In vitro plasma stability, human plasma; conditions: male, pH 7.4, 5 μM, 37° C., sampling 0-360 minutes, read-out: T1/2 Human
Procedure: as §1

Structure (SMILES): CO/N=C(\C)C1(NO)C(=O)N(C)N=C1C(C)(C)C (stereo not drawn) [Compound 10, 5-(tert-butyl)-4-(hydroxyamino)-4-(1-(methoxyimino)ethyl)-2-methyl-2,4-dihydro-3H-pyrazol-3-one]
half-life at 5 μM [1]: 40 min
half-life at 5 μM [2]: 21 min
half-life at 5 μM [3]: 12 min

Structure (SMILES): CO/N=C(\C)C1(NO)C(=O)N(c2ccccc2)N=C1C(C)C (stereo not drawn) [Compound 16, 4-(hydroxyamino)-5-iso-propyl-4-(1-(methoxyimino)ethyl)-2-phenyl-2,4-dihydro-3H-pyrazol-3-one]
half-life at 5 μM [1]: 8 min

Structure (SMILES): CO/N=C(\C)C1(NO)C(=O)N(c2ccc(Br)cc2)N=C1C(C)C (stereo not drawn) [Compound 17, 2-(4-bromophenyl)-4-(hydroxyamino)-5-iso-propyl-4-(1-(methoxyimino)ethyl)-2,4-dihydro-3H-pyrazol-3-one]
half-life at 5 μM [1]: < 1 min

Structure (SMILES): CO/N=C(\C)C1(NO)C(=O)N(c2ccccc2)N=C1C(C)(C)C (stereo not drawn) [Compound 18, 5-(tert-butyl)-4-(hydroxyamino)-4-(1-(methoxyimino)ethyl)-2-phenyl-2,4-dihydro-3H-pyrazol-3-one]
half-life at 5 μM [1]: 13 min
half-life at 5 μM [2]: 17 min
half-life at 5 μM [3]: 26 min

Structure (SMILES): CO/N=C(\C)C1(NO)C(=O)N(C)N=C1C1CC1 (stereo not drawn) [Compound 20, 5-cyclopropyl-4-(hydroxyamino)-4-(1-(methoxyimino)ethyl)-2-methyl-2,4-dihydro-3H-pyrazol-3-one]
half-life at 5 μM [1]: 20 min

Structure (SMILES): CO/N=C(\C)C1(NO)C(=O)N(C(C)C)N=C1C(C)(C)C (stereo not drawn) [Compound 28, 5-(tert-butyl)-4-(hydroxyamino)-2-iso-propyl-4-(1-(methoxyimino)ethyl)-2,4-dihydro-3H-pyrazol-3-one]
half-life at 5 μM [1]: 87 min

Structure (SMILES): CC1(NO)C(=O)N(c2ccc(Br)cc2)N=C1c1ccccc1Cl (stereo not drawn) [Compound 44, 1-(4-bromophenyl)-3-(2-chlorophenyl)-4-(hydroxyamino)-4-methyl-1H-pyrazol-5(4H)-one]
half-life at 5 μM [1]: 26 min

Structure (SMILES): CC1=NN(c2ccc(Br)cc2)C(=O)C1(NO)c1ccccc1 (stereo not drawn) [Compound 47, 1-(4-bromophenyl)-4-(hydroxyamino)-3-methyl-4-phenyl-1H-pyrazol-5(4H)-one]
half-life at 5 μM [1]: 11 min

Structure (SMILES): CC1(NO)C(=O)N(c2ccc(Br)cc2)N=C1c1ccccc1 (stereo not drawn) [Compound 50, 1-(4-bromophenyl)-4-(hydroxyamino)-4-methyl-3-phenyl-1H-pyrazol-5(4H)-one]
half-life at 5 μM [1]: 356 min

Structure (SMILES): CO/N=C(\C)C1(NO)C(=O)N(C)N=C1C(C)C (stereo not drawn) [Compound 63, 4-(hydroxyamino)-3-isopropyl-4-(1-(methoxyimino)ethyl)-1-methyl-1H-pyrazol-5(4H)-one]
half-life at 5 μM [1]: > 360 min

Structure (SMILES): CC1=NN(C)C(=O)C1(NO)c1ccc([S+](C)[O-])cc1 (stereo not drawn) [Compound 65, 4-(hydroxyamino)-1,3-dimethyl-4-(4-(methylsulfinyl)phenyl)-1H-pyrazaol-5(4H)-one]
half-life at 5 μM [1]: 8 min

Structure (SMILES): COc1ccc(C2(NO)C(=O)N(C)N=C2C)cc1C (stereo not drawn) [Compound 76, 4-(Hydroxyamino)-4-(4-methoxy-3-methylphenyl)-1,3-dimethyl-4,5-dihydro-1H-pyrazol-5-one]
half-life at 5 μM [1]: 21 min

Structure (SMILES): CN1N=C(c2ccc(C(=O)NCC(=O)O)cc2)C(C)(NO)C1=O (stereo not drawn) [Compound 95, 2-({4-[4-(Hydroxyamino)-1,4-dimethyl-5-oxo-4,5-dihydro-1H-pyrazol-3-yl]phenyl}formamido)acetic acid]
half-life at 5 μM [1]: 120 min

Structure (SMILES): CC1=NN(C)C(=O)C1(NO)c1cccc(F)c1 (stereo not drawn) [Compound 96, 4-(3-Fluorophenyl)-4-(hydroxyamino)-1,3-dimethyl-4,5-dihydro-1H-pyrazol-5-one]
half-life at 5 μM [1]: 6 min

Structure (SMILES): CC1=NN(C)C(=O)C1(NO)c1cccc(Cl)c1 (stereo not drawn) [Compound 99, 4-(3-Chlorophenyl)-4-(hydroxyamino)-1,3-dimethyl-4,5-dihydro-1H-pyrazol-5-one]
half-life at 5 μM [1]: 4 min

Structure (SMILES): CC1=NN(C)C(=O)C1(NO)/C(C)=N/Oc1ccccc1 (stereo not drawn) [Compound 102, 4-(Hydroxyamino)-1,3-dimethyl-4-[1-(phenoxyimino)ethyl]-4,5-dihydro-1H-pyrazol-5-one]
half-life at 5 μM [1]: < 1 min

Structure (SMILES): CC1=NN(C)C(=O)C1(NO)/C(C)=N/OCc1ccccc1 (stereo not drawn) [Compound 103, 4-(Hydroxyamino)-1,3-dimethyl-4-[1-(benzyloxyimino)ethyl]-4,5-dihydro-1H-pyrazol-5-one]
half-life at 5 μM [1]: 3 min

Structure (SMILES): CO/N=C(\C)C1(NO)C(=O)N(c2ccccc2)N=C1Sc1ccccc1 (stereo not drawn) [Compound 128, 4-(Hydroxyamino)-4-[1(methoxyimino)ethyl]-1-phenyl-3-(phenylsulfanyl)-4,5-dihydro-1H-pyrazol-5-one]
half-life at 5 μM [1]: 3 min
half-life at 5 μM [2]: 7 min

Other lines, results leading:

half-life at 5 μM [1]: 172 min
half-life at 5 μM [2]: 78 min
half-life at 5 μM [3]: 108 min
Structure (SMILES): CN1N=C(c2ccc(F)cc2)C(C)(NO)C1=O (stereo not drawn) [Compound 5, 5-(4-fluorophenyl)-4-(hydroxyamino)-2,4-dimethyl-2,4-dihydro-3H-pyrazol-3-one]

half-life at 5 μM [1]: 117 min
half-life at 5 μM [2]: 34 min
half-life at 5 μM [3]: 104 min
Structure (SMILES): Cc1cc(C)cc(C2=NN(C)C(=O)C2(C)NO)c1 (stereo not drawn) [Compound 7, 5-(3,5-dimethylphenyl)-4-(hydroxyamino)-2,4-dimethyl-2,4-dihydro-3H-pyrazol-3-one]

half-life at 5 μM [1]: 170 min
Structure (SMILES): CC(C)N1N=C(c2ccccc2Cl)C(C)(NO)C1=O (stereo not drawn) [Compound 8, 5-(2-chlorophenyl)-4-(hydroxyamino)-2-iso-propyl-4-methyl-2,4-dihydro-3H-pyrazol-3-one]

half-life at 5 μM [1]: 59 min
half-life at 5 μM [2]: 17 min
half-life at 5 μM [3]: 43 min
Structure (SMILES): CN1N=C(c2cc(Cl)cc(Cl)c2)C(C)(NO)C1=O (stereo not drawn) [Compound 9, 5-(3,5-dichlorophenyl)-4-(hydroxyamino)-2,4-dimethyl-2,4-dihydro-3H-pyrazol-3-one]

half-life at 5 μM [1]: 39 min
half-life at 5 μM [2]: 88 min
half-life at 5 μM [3]: 65 min
Structure (SMILES): CN1N=C(c2ccc([S+](C)[O-])cc2)C(C)(NO)C1=O (stereo not drawn) [Compound 11, 4-(hydroxyamino)-2,4-dimethyl-5-(4-(methylsulfinyl)phenyl)-2,4-dihydro-3H-pyrazol-3-one]

half-life at 5 μM [1]: 28 min
half-life at 5 μM [2]: 20 min
half-life at 5 μM [3]: 18 min
Structure (SMILES): CN1N=C(c2ccc(F)cc2Cl)C(C)(NO)C1=O (stereo not drawn) [Compound 12, 5-(2-chloro-4-fluorophenyl)-4-(hydroxyamino)-2,4-dimethyl-2,4-dihydro-3H-pyrazol-3-one]

half-life at 5 μM [1]: 95 min
half-life at 5 μM [2]: 90 min
half-life at 5 μM [3]: 163 min
Structure (SMILES): COc1ccc(C2=NN(C)C(=O)C2(C)NO)cc1F (stereo not drawn) [Compound 19, 5-(3-fluoro-4-methoxyphenyl)-4-(hydroxyamino)-2,4-dimethyl-2,4-dihydro-3H-pyrazol-3-one]

half-life at 5 μM [1]: 24 min
half-life at 5 μM [2]: 36 min
half-life at 5 μM [3]: 41 min
Structure (SMILES): CN1N=C(c2ccccc2[S+](C)[O-])C(C)(NO)C1=O (stereo not drawn) [Compound 21, 4-(hydroxyamino)-2,4-dimethyl-5-(2-(methylsulfinyl)phenyl)-2,4-dihydro-3H-pyrazol-3-one]

half-life at 5 μM [1]: 58 min
Structure (SMILES): CC1(NO)C(=O)N(c2ccccc2)N=C1c1ccccc1F (stereo not drawn) [Compound 29, 5-(2-fluorophenyl)-4-(hydroxyamino)-4-methyl-2-phenyl-2,4-dihydro-3H-pyrazol-3-one]

half-life at 5 μM [1]: 8 min
Structure (SMILES): CO/N=C(\C)C1(NO)C(=O)N(C)N=C1c1ccc(C(F)(F)F)cc1 (stereo not drawn) [Compound 52, 4-(hydroxyamino)-4-(1-(methoxyimino)ethyl)-1-methyl-3-(4-(trifluoromethyl)phenyl)-1H-pyrazol-5(4H)-one]

half-life at 5 μM [1]: 159 min
Structure (SMILES): CN1N=C(c2cccc(Cl)c2)C(C)(NO)C1=O (stereo not drawn) [Compound 54, 3-(3-chlorophenyl)-4-(hydroxyamino)-1,4-dimethyl-1H-pyrazol-5(4H)-one]

half-life at 5 μM [1]: 116 min
Structure (SMILES): COc1ccccc1C1=NN(C)C(=O)C1(C)NO (stereo not drawn) [Compound 55, 4-(hydroxyamino)-3-(2-methoxyphenyl)-1,4-dimethyl-1H-pyrazol-5(4H)-one]

half-life at 5 μM [1]: 69 min
Structure (SMILES): CN1N=C(c2ccccc2OC(F)(F)F)C(C)(NO)C1=O (stereo not drawn) [Compound 56, 4-(hydroxyamino)-1,4-dimethyl-3-(2-(trifluoromethoxy)phenyl)-1H-pyrazol-5(4H)-one]

half-life at 5 μM [1]: 15 min
Structure (SMILES): CN1N=C(c2cccc(Cl)c2Cl)C(C)(NO)C1=O (stereo not drawn) [Compound 57, 3-(2,3-dichlorophenyl)-4-(hydroxyamino)-1,4-dimethyl-1H-pyrazol-5(4H)-one]

half-life at 5 μM [1]: 19 min
Structure (SMILES): CN1N=C(c2ccc(Cl)cc2Cl)C(C)(NO)C1=O (stereo not drawn) [Compound 58, 3-(2,4-dichlorophenyl)-4-(hydroxyamino)-1,4-dimethyl-1H-pyrazol-5(4H)-one]

half-life at 5 μM [1]: 49 min
Structure (SMILES): CN1N=C(c2ccccc2C(F)(F)F)C(C)(NO)C1=O (stereo not drawn) [Compound 60, 4-(hydroxyamino)-1,4-dimethyl-3-(2-(trifluoromethyl)phenyl)-1H-pyrazol-5(4H)-one]

half-life at 5 μM [1]: > 360 min
Structure (SMILES): CC1(NO)C(=O)N(c2ccccc2)N=C1C(F)(F)F (stereo not drawn) [Compound 61, 4-(hydroxyamino)-4-methyl-1-phenyl-3-(trifluoromethyl)-1H-pyrazol-5(4H)-one]

half-life at 5 μM [1]: 44 min
half-life at 5 μM [2]: 114 min
Structure (SMILES): CCOc1cc(F)ccc1C1=NN(C)C(=O)C1(C)NO (stereo not drawn) [Compound 62, 3-(2-ethoxy-4-fluorophenyl)-4-(hydroxyamino)-1,4-dimethyl-1H-pyrazol-5(4H)-one]

half-life at 5 μM [1]: 226 min
Structure (SMILES): CN1N=C(c2ccc(C(C)(C)C)cc2)C(C)(NO)C1=O (stereo not drawn) [Compound 91, 3-(4-tert-Butylphenyl)-4-(hydroxyamino)-1,4-dimethyl-4,5-dihydro-1H-pyrazol-5-one]
